Data as given in US12697321B2, “Kv1.3 antagonists for use in the treatment of chronic and acute pain” (SEA4US—BIOTECNOLOGIA E RECURSOS MARINHOS, LDA., priority 2019, dated 2026).
pIC50: −log10 of the molar value. Counter-ions that a name gives are not always drawn.

Experiments:
hKv1.3 = target: T1, hKv1.3 (Homo sapiens, UniProt P22001); experiment: Whole-cell voltage-clamp on cell lines expressing Kv1.x channels (nitenin); type: cell-based
T1 construct: expressed in transfected cells
From the text: In the context of this disclosure, “affinity” relates to the effect on the activity of such channel. Affinity can be measured by voltage clamp recordings of currents evoked by cells that express solely that given channel.
Voltage-clamp recordings under the whole-cell configurations were/are used to measure the ‘amount of inhibition’ of the whole-cell current evoked by a given channel expressed in non-excitable cell lines. Dose responses are obtained by measuring such inhibitions per each concentration. Voltage-activated K+ currents were evoked from mammalian cell lines expressing Kv1.1, Kv1.2, Kv1.3, Kv1.4, Kv1.5, kv1.6 or kv1.7 using standard voltage protocols (Schmitz et al., 2005; Vennekamp et al.).

[1] = test system: CCI rats (chronic constriction of the sciatic nerve of Wistar rats); settings: for efficacy for short-term/acute and long-term/chronic neuropathic pain: intravenous administration
K^+ currents from sdTGNs = experiment: Whole-cell voltage-clamp of K+ currents in small diameter trigeminal ganglion neurons; settings: dose dependent manner
[2] = test system: K^+ currents recorded from a small diameter neuron isolated from a dorsal-root ganglion of the 'affected' side of a CCI rat; experiment: Voltage dependence of steady-state inactivation of K+ currents, sdDRG neuron of CCI rat; settings: CCI rat 28 days after surgery

T1 sequence (P22001 whole entry): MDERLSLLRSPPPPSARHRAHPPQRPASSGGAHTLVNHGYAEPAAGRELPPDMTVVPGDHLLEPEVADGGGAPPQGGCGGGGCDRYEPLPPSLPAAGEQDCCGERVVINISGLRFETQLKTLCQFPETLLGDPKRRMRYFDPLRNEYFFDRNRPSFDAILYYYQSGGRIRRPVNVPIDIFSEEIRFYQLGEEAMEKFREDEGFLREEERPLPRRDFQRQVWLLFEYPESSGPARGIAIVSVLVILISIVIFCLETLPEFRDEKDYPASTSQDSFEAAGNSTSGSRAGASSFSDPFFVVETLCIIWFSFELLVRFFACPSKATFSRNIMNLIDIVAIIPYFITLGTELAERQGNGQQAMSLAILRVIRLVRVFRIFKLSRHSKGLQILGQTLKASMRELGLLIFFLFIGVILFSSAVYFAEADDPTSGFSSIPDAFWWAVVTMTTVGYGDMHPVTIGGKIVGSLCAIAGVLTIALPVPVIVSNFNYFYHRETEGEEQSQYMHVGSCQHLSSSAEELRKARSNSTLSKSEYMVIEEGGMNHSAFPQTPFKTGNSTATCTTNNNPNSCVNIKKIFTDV

Compound	pIC50 (hKv1.3)	efficacy for short-term/acute and long-term/chronic neuropathic pain [1]	mechanical sensitivity of the ipsilateral leg at maximum effect ([1]; nitenin IV, estimated plasma concentration 1 μg/ml, 26 days after surgery, Von Frey)	effect on K+ currents from sdTGNs (K^+ currents from sdTGNs)	Vh1 (voltage of half maximum current, component 1) of steady-state inactivation ([2]; nitenin 0.29 μM, control Vh1=−73.3 mV) [mV]	Vh2 (voltage of half maximum current, component 2) of steady-state inactivation ([2]; nitenin 0.29 μM, control Vh2=−26.3 mV) [mV]	Vh1 (voltage of half maximum current, component 1) of steady-state inactivation ([2]; AM92016 hidrochloride 40 nM, control Vh1=−71.3 mV) [mV]	Vh2 (voltage of half maximum current, component 2) of steady-state inactivation ([2]; AM92016 hidrochloride 40 nM, control Vh2=−28.2 mV) [mV]	Vh1 (voltage of half maximum current, component 1) of steady-state inactivation ([2]; PAP-1 2 nM, control Vh1=−90.1 mV) [mV]	Vh2 (voltage of half maximum current, component 2) of steady-state inactivation ([2]; PAP-1 2 nM, control Vh2=−27.8 mV) [mV]
C/C(=C\C1C/C(=C/CCc2ccoc2)C(=O)O1)CCCc1ccoc1 (stereo not shown) [nitenin]	~6.72	effective	in some instances similar to those obtained during baseline	inhibit the K^+ currents	−95.3	−47.0				
O=c1ccc2c(OCCCCc3ccccc3)c3ccoc3cc2o1 [PSORA-4, 4-(4-Phenylbutoxy)-7H-furo[3,2-g][1]benzopyran-7-one]		effective		inhibit the K^+ currents						
CN(CCc1ccc(Cl)c(Cl)c1)CC(O)COc1ccc(NS(C)(=O)=O)cc1 (stereo not shown) [AM92016 hydrochloride]		effective		inhibit the K^+ currents			−93.63	−33.6		
O=c1ccc2c(OCCCCOc3ccccc3)c3ccoc3cc2o1 [PAP-1, 5-(4-Phenoxybutoxy)psoralen]		effective		inhibit the K^+ currents					−101.7	−32.6
